Data taken from ChEMBL document CHEMBL4507283, “Data for DCP probe BI-1935” (2021).
Active and inactive are the calls of the source. The calls are words filed in the database; no cut-off is given here.

Experiments:
[1] = molecular target: Proto-oncogene tyrosine-protein kinase receptor Ret (Homo sapiens) (UniProt P07949); conditions: Compound concentration 1000.0 nM
[2] = molecular target: Calcitonin-gene-related peptide receptor, CALCRL/RAMP1 (Homo sapiens) (UniProt O60894+Q16602); assay: CGRP/HU Eurofins-Panlabs selectivity data (BI); type: protein-complex assay; conditions: Compound concentration 10.0 uM
[3] = molecular target: Alpha-2B adrenergic receptor (Homo sapiens) (UniProt P18089); conditions: Compound concentration 10.0 uM
[4] = molecular target: 1-phosphatidylinositol 3-phosphate 5-kinase (Homo sapiens) (UniProt Q9Y2I7); conditions: Compound concentration 1000.0 nM
1-phosphatidylinositol 3-phosphate 5-kinase (Homo sapiens), sequence (Q9Y2I7 whole entry): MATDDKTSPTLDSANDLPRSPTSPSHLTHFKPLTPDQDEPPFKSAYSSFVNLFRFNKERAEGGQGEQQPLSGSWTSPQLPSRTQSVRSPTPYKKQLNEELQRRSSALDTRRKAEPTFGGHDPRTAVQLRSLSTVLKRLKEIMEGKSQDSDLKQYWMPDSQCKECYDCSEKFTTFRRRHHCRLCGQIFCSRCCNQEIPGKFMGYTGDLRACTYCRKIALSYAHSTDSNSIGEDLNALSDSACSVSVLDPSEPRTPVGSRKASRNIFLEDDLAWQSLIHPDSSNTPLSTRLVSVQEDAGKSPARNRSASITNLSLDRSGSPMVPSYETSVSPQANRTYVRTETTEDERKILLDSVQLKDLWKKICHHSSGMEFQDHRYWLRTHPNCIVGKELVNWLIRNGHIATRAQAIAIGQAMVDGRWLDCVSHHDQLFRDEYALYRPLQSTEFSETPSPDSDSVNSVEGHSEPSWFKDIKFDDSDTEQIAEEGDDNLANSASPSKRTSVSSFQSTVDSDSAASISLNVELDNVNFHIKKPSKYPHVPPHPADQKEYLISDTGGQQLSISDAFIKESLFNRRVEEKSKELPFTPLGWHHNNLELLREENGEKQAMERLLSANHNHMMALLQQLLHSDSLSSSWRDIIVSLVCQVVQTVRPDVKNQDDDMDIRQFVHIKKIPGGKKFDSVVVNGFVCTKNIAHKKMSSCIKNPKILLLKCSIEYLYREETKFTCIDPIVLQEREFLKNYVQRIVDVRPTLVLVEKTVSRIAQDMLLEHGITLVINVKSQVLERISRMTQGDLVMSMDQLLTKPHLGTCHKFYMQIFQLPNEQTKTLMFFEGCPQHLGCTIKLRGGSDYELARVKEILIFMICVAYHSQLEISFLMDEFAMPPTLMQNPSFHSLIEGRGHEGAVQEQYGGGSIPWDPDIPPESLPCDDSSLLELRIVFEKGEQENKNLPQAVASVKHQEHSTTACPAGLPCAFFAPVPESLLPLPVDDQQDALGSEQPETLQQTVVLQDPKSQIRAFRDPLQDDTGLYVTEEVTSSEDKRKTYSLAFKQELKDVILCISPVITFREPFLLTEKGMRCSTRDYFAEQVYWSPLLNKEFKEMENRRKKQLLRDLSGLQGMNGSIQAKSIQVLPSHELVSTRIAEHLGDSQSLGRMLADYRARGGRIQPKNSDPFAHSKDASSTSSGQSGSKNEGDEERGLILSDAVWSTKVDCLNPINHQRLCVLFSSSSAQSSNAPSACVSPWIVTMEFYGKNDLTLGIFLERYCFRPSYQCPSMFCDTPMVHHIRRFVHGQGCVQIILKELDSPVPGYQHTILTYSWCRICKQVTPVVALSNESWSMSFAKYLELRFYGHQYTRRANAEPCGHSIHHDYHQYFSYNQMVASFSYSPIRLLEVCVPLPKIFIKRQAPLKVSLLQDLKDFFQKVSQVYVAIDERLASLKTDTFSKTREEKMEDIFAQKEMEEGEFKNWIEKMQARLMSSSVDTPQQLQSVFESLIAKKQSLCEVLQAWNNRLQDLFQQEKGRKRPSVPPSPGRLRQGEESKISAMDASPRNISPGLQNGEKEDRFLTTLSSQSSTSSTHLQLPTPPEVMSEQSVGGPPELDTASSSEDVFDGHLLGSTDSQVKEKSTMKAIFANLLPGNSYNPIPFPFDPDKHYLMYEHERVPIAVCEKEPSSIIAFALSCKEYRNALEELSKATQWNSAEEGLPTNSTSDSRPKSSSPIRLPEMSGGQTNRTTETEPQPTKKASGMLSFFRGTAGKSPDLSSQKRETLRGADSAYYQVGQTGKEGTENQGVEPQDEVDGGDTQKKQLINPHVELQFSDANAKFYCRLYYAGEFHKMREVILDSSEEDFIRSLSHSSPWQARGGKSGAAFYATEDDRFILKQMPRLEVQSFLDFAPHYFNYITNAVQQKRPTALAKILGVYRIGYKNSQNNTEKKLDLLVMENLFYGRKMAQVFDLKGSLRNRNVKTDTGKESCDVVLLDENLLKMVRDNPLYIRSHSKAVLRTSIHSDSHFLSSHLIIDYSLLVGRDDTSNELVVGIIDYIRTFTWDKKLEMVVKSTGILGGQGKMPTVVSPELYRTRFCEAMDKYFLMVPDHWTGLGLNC

[5] = molecular target: Phosphatidylinositol 3-kinase catalytic subunit type 3 (Homo sapiens) (UniProt Q8NEB9); conditions: Compound concentration 1000.0 nM
[6] = molecular target: Serine/threonine-protein kinase 33 (Homo sapiens) (UniProt Q9BYT3); conditions: Compound concentration 1000.0 nM
Serine/threonine-protein kinase 33 (Homo sapiens), sequence (Q9BYT3 whole entry, looked up): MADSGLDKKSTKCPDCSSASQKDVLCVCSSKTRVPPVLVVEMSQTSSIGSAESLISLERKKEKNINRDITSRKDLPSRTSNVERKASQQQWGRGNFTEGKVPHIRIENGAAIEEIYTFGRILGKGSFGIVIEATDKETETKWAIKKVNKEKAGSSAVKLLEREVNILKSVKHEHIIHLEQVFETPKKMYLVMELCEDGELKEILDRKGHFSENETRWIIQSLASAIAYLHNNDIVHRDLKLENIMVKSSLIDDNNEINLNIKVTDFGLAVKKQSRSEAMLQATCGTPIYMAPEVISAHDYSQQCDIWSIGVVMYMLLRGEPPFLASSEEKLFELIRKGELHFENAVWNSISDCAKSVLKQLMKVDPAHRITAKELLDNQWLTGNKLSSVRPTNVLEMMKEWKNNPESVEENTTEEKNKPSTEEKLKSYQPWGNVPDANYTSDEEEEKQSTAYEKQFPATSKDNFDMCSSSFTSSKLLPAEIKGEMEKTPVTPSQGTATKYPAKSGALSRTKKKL

[7] = molecular target: Tyrosine-protein kinase Fer (Homo sapiens) (UniProt P16591); conditions: Compound concentration 1000.0 nM
[8] = molecular target: T1, Bifunctional epoxide hydrolase 2 (Homo sapiens, UniProt P34913); assay: Cellular assay
T1 sequence (P34913 whole entry): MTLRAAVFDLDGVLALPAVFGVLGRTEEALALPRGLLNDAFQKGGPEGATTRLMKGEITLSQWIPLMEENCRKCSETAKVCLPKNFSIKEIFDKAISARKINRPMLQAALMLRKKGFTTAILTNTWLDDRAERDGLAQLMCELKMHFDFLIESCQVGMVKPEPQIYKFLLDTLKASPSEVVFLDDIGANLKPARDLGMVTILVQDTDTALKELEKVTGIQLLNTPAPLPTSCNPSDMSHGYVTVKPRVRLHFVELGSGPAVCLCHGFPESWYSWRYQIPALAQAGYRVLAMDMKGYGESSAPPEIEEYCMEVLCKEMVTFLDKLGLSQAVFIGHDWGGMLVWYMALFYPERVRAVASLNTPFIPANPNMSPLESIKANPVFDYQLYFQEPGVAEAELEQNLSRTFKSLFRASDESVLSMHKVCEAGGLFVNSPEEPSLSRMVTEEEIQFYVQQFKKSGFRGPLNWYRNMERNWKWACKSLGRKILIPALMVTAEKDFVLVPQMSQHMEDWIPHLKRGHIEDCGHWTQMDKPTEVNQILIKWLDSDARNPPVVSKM

[9] = system: Receptor-type tyrosine-protein kinase FLT3 (Homo sapiens), P36888 [D835V]; conditions: Compound concentration 1000.0 nM
[10] = molecular target: Fibroblast growth factor receptor 3 (Homo sapiens) (UniProt P22607); conditions: Compound concentration 1000.0 nM
[11] = molecular target: Tyrosine-protein kinase JAK1 (Homo sapiens) (UniProt P23458); conditions: Compound concentration 1000.0 nM
Tyrosine-protein kinase JAK1 (Homo sapiens), sequence (P23458 whole entry): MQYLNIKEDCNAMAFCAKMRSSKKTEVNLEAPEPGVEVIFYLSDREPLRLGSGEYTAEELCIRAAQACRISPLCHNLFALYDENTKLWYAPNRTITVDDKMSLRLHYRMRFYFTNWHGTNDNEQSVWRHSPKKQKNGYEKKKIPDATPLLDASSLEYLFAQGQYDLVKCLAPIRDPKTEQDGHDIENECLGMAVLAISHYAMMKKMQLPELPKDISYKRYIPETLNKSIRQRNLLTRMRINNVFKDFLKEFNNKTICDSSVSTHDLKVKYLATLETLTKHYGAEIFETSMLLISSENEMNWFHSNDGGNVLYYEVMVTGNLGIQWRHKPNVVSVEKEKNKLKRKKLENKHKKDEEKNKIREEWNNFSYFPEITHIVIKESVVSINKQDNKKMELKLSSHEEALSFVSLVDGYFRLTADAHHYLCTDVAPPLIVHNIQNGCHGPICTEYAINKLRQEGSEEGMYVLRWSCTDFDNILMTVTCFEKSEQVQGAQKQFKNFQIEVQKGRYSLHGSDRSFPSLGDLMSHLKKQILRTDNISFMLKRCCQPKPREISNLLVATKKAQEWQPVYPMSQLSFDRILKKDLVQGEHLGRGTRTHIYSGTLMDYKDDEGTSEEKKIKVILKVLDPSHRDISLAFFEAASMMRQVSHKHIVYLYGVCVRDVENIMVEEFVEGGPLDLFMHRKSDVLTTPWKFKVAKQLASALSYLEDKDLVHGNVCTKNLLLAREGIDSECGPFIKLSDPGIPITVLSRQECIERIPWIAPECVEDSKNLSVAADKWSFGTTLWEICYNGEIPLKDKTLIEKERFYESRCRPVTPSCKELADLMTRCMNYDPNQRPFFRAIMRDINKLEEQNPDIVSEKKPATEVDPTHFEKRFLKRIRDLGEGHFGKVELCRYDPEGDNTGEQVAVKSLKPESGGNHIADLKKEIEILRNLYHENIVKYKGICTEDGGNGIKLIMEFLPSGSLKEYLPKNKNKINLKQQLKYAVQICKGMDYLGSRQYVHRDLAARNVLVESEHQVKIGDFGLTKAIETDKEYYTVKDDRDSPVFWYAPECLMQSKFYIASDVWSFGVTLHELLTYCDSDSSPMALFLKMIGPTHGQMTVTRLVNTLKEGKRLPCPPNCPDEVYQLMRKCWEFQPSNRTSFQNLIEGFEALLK

[12] = molecular target: cAMP-dependent protein kinase catalytic subunit alpha (Homo sapiens) (UniProt P17612); conditions: Compound concentration 1000.0 nM
[13] = molecular target: Ephrin type-B receptor 1 (Homo sapiens) (UniProt P54762); conditions: Compound concentration 1000.0 nM
[14] = molecular target: Myosin-IIIa (Homo sapiens) (UniProt Q8NEV4); conditions: Compound concentration 1000.0 nM
[15] = molecular target: Serine/threonine-protein kinase VRK2 (Homo sapiens) (UniProt Q86Y07); conditions: Compound concentration 1000.0 nM
Serine/threonine-protein kinase VRK2 (Homo sapiens), sequence (Q86Y07 whole entry): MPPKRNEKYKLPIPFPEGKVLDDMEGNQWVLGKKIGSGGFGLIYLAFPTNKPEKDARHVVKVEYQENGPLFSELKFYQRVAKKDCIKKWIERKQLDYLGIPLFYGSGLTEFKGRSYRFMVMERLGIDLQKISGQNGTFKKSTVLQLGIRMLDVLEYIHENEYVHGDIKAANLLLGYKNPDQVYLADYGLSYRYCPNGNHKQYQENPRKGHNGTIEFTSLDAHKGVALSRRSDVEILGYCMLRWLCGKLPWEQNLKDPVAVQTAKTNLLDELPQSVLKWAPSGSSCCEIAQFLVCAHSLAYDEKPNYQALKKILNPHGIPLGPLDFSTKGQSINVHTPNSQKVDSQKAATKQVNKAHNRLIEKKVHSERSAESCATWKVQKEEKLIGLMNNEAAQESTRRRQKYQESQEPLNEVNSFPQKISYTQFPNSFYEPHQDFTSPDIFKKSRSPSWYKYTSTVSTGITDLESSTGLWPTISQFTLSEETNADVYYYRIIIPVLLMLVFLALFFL

[16] = molecular target: RAC-alpha serine/threonine-protein kinase (Homo sapiens) (UniProt P31749); conditions: Compound concentration 1000.0 nM
[17] = molecular target: Death-associated protein kinase 1 (Homo sapiens) (UniProt P53355); conditions: Compound concentration 1000.0 nM
[18] = molecular target: Glycogen synthase kinase-3 alpha (Homo sapiens) (UniProt P49840); conditions: Compound concentration 1000.0 nM
[19] = molecular target: Discoidin domain-containing receptor 2 (Homo sapiens) (UniProt Q16832); conditions: Compound concentration 1000.0 nM
[20] = molecular target: Ephrin type-A receptor 2 (Homo sapiens) (UniProt P29317); conditions: Compound concentration 1000.0 nM
[21] = molecular target: Platelet-derived growth factor receptor beta (Homo sapiens) (UniProt P09619); conditions: Compound concentration 1000.0 nM
[22] = molecular target: Protein kinase C delta type (Homo sapiens) (UniProt Q05655); conditions: Compound concentration 1000.0 nM
[23] = molecular target: Cyclin-dependent kinase 15 (Homo sapiens) (UniProt Q96Q40); conditions: Compound concentration 1000.0 nM
[24] = molecular target: 5-hydroxytryptamine receptor 6 (Homo sapiens) (UniProt P50406); conditions: Compound concentration 10.0 uM
[25] = molecular target: cAMP-dependent protein kinase catalytic subunit PRKX (Homo sapiens) (UniProt P51817); conditions: Compound concentration 1000.0 nM
[26] = molecular target: Sodium/potassium-transporting ATPase subunit alpha-1 (Sus scrofa) (UniProt P05024); assay: ATP NA+/K+PI Eurofins-Panlabs selectivity data (BI); conditions: Compound concentration 10.0 uM
[27] = system: Receptor-type tyrosine-protein kinase FLT3 (Homo sapiens), P36888 [R834Q]; conditions: Compound concentration 1000.0 nM
[28] = molecular target: Mitogen-activated protein kinase kinase kinase kinase 4 (Homo sapiens) (UniProt O95819); conditions: Compound concentration 1000.0 nM
[29] = molecular target: Leukocyte tyrosine kinase receptor (Homo sapiens) (UniProt P29376); conditions: Compound concentration 1000.0 nM
[30] = molecular target: Serine/threonine-protein kinase BRSK1 (Homo sapiens) (UniProt Q8TDC3); conditions: Compound concentration 1000.0 nM
[31] = system: Tyrosine-protein kinase ABL1 (Homo sapiens), P00519 [H396P]; conditions: Compound concentration 1000.0 nM
[32] = molecular target: Cyclin-G-associated kinase (Homo sapiens) (UniProt O14976); conditions: Compound concentration 1000.0 nM
[33] = molecular target: Aurora kinase C (Homo sapiens) (UniProt Q9UQB9); conditions: Compound concentration 1000.0 nM
[34] = molecular target: Activated CDC42 kinase 1 (Homo sapiens) (UniProt Q07912); conditions: Compound concentration 1000.0 nM
Rattus norvegicus = organism: Rattus norvegicus; conditions: Compound concentration 10.0 uM
[35] = system: Phosphatidylinositol 4,5-bisphosphate 3-kinase catalytic subunit alpha isoform (Homo sapiens), P42336 [I800L]; conditions: Compound concentration 1000.0 nM
[36] = molecular target: Atypical kinase COQ8B, mitochondrial (Homo sapiens) (UniProt Q96D53); conditions: Compound concentration 1000.0 nM
[37] = molecular target: Cyclin-dependent kinase 11B (Homo sapiens) (UniProt P21127); conditions: Compound concentration 1000.0 nM
Cyclin-dependent kinase 11B (Homo sapiens), sequence (P21127 whole entry): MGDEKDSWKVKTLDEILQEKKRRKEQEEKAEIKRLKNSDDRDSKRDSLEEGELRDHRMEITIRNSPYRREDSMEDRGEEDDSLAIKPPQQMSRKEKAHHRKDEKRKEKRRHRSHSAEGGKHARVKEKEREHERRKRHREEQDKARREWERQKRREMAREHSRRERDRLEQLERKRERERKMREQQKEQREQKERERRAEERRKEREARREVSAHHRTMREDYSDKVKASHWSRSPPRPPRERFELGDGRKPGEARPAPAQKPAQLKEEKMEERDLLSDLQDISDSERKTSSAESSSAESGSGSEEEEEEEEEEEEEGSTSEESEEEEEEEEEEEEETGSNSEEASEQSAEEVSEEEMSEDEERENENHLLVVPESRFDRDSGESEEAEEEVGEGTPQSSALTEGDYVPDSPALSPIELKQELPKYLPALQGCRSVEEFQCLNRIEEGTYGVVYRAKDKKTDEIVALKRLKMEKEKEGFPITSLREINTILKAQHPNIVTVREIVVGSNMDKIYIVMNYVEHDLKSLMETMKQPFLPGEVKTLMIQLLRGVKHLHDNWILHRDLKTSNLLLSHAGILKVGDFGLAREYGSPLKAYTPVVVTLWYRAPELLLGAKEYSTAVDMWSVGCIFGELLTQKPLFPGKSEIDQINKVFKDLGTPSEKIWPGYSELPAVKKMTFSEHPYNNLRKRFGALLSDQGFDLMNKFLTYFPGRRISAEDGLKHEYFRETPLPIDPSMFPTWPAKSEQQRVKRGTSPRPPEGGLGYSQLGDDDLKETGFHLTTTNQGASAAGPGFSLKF

For `CCOCCn1cc(C(=O)Nc2ccc(-n3nc(-c4cccnc4)cc3C(F)(F)F)cn2)ccc1=O` [BI 1935], the residual activity [1] was 83%, the residual activity [2] was 105% and the inhibition [3] was 4.9%. It also gave a residual activity [4] of 97%, a residual activity [5] of 77% and a residual activity [6] of 94%. The residual activity [7] was 100%, the IC50 [8] was < 1 nM (active) and the residual activity [9] was 100%. The residual activity [10] was 84%, the residual activity [11] was 100% and the residual activity [12] was 92%. The residual activity [13] was 100%, the residual activity [14] was 100% and the residual activity [15] was 97%. It also gave a residual activity [16] of 95%, a residual activity [17] of 100% and a residual activity [18] of 100%. It also gave a residual activity [19] of 100%, a residual activity [20] of 93% and a residual activity [21] of 88%. It also gave a residual activity [22] of 100%, a residual activity [23] of 100% and an inhibition [24] of 0.656%. For the same molecule, the residual activity [25] was 100%, the residual activity [26] was 94% and the residual activity [27] was 100%. For the same molecule, the residual activity [28] was 91%, the residual activity [29] was 100% and the residual activity [30] was 100%. It also gave a residual activity [31] of 94%, a residual activity [32] of 100% and a residual activity [33] of 88%. For the same molecule, the residual activity [34] was 81%, the inhibition (Rattus norvegicus) was -5.52% and the residual activity [35] was 71%. It also gave a residual activity [36] of 100% and a residual activity [37] of 100%.
